From patent publication US10076525B2, “Sex steroid precursors alone or in combination with selective estrogen receptor modulators for the prevention and treatment of dyspareunia in postmenopausal women” (ENDORECHERCHE, INC., priority 2004, dated 2018)

What was measured:
rat vagina [1] = assay: Histological evaluation of epithelium, lamina propria and muscularis in the seven rat vaginal segments; format: in vivo; conditions: OVX rats, 36 wk; for epithelium morphology: Acolbifene 2.5, Premarin 0.5 mg/kg oral, DHEA 80 mg/kg dorsal skin
Excerpt: (§1) The animals were housed individually and were allowed free access to water and rodent food (Lab Diet 5002, Ralston Purina, St-Louis, Mo.).
(§2) Animals from the intact and OVX control groups received the vehicle alone.
(§3) Twenty-four hours after the last dosing, overnight fasted animals were sacrificed under isoflurane anesthesia by exsanguination at the abdominal aorta (9 animals per group) or by intracardiac perfusion with 10% neutral buffered formalin (5 animals per group). Vaginae from non-perfused animals were collected and weighed, while the vaginae collected from perfused animals were marked with black ink on the ventral side, and then trimmed as described below.
(§4) The entire vagina of each perfused animal was post-fixed in 10% neutral buffered formalin.
The degree of compactness of collagen fibers in the vagina was categorized as low, moderate and high (FIGS. 6A-6C, respectively), as observed in the area proximal to the epithelium. <<Low>> and <<moderate compactness>> were associated with the presence of coarse collagen fibers loosely or less loosely aggregated together, respectively, while <<high compactness>> was the term used to describe tightly packed fine collagen fibers, displaying a smooth, textured appearance. In all the animals, there were relatively few fibrocytes in proportion to the amount of collagen, and they appeared predominantly flattened and shrunken.

rat vagina [2] = conditions: ovariectomized rat, DHEA 30 mg twice daily on dorsal skin, one, three or six months; cited from earlier work
[3] = Body weight after 14-day intravaginal DHEA suppository; format: in vivo, rat; conditions: OVX rats, 14 days
Excerpt: as §1
(§5) The insertion into the vagina of one suppository began on day 5 of the study and was continued once daily until day 18 of the study, for a total of 14 days of treatment. The suppository was gently placed in the vaginal opening and then delicately pushed about 2-3 mm inside the vagina with the help of a small, smooth glass stick, disinfected in 70% alcohol and dried between each animal.

rat vagina [4] = assay: Vaginal weight after 36 weeks of treatment; format: in vivo; conditions: OVX rats, 36 wk, mean±SEM; OVX 101±5, intact 205±11
Excerpt: as §2, §3
(§6) Data are presented as means±SEM of 8-9 animals per group for vaginal weight or 5 animals per group for vaginal layer thickness determinations. Statistical significance was determined according to the multiple-range test of Duncan-Kramer (Kramer, 1956, Biometrics, 12: 307-310).

PR = assay: Immunohistochemistry of PR in fifth vaginal segment; format: in vivo, rat; conditions: OVX rats, 36 wk
Experimental: as §2
Immunostaining was performed using Zymed SP kits (San Francisco, Calif.). Paraffin sections (4 μm) were deparaffinized in toluene and rehydrated through ethanol. Endogenous peroxidase activity was eliminated by preincubation with 3% H2O2 in methanol for 30 min. A microwave retrieval technique using citrate buffer (Tacha and Chen, 1994) was applied. After cooling the slides, non-specific binding was blocked using 10% goat serum for 20 min. Sections were then incubated for 1.5 h at room temperature with ERα (AB-1, Calbiochem, California), AR (N-20, Santa Cruz Biotechnology, California) or PR (Ab-4, NeoMarkers, California) antibodies, at 1:200, 1:250 and 1:250 respectively. After washing in PBS buffer, sections were incubated with biotinylated anti-rabbit secondary antibody for 10 min and thereafter with streptavidin-peroxidase for another 10 min. Diaminobenzidine was used as the chromogen to visualize the biotin/streptavidin-peroxidase complex, under microscope monitoring. Counterstaining was performed using #2 Gill's hematoxylin for 30 sec. For controls, immunoabsorption with an excess of the peptide used to raise the antibody, or substitution with non immune rabbit IgG, was performed.

[5] = DHEA blood levels after topical DHEA (Example 1); format: in vivo, rat; conditions: DHEA 80 mg/kg topically on dorsal skin, rats
Excerpt: as §2

rat vagina [6] = assay: Intravaginal DHEA suppository: vaginal epithelium morphology in OVX rats (Example 3); format: in vivo; conditions: 14 days
Excerpt: as §1, §5
Vagina—including the urethra—and uterus were collected, and then trimmed as described below. For further analysis, two pieces of inguinal mammary gland were sampled, as well as a square piece of about 2 X 2 cm of shaved dorsal skin, the latter being put and gently flattened on a piece of carton.
Any other lipophilic base such as Fattibase, Wecobee, cocoa butter, theobroma oil or other combinations of Whitepsol bases could also be used. […] The proper amount of suppository base pellets to weight in order to obtain the final volume needed was calculated based on the previously measured density of the suppository base, which was 47.5 mg per 50 μl. The suppository base was put in a small beaker, melted in microwave at power 50% for about 3 min and 30 sec and then transferred on a heating plate, which was adjusted at the lowest power in order to keep the suppository base at a temperature of 50±3° C. […] These moulds were made from microcentrifuge tubes, each of them previously calibrated with 50 μl of water and cut at the level of the line drawn at the water surface. After 30 min of cooling at room temperature, the suppositories were put at 4° C. for another 30 min. Finally, the excess of base was trimmed with a razor blade and the suppositories were removed from their moulds and stored in closed glass bottles at 4° C. until use. They were allowed to reach room temperature before being applied to the animals.
The organs were immersed in 10% neutral buffered formalin immediately after resection. Each vagina and uterus was divided into 8 equal cross-segments and 4 cross-segments including two from the cervix and two from each of the two proximal and distal horns, respectively. The segments were then routinely processed and embedded all together in the same paraffin block.
Segment 6 represented the deeper vaginal mucosa and is separated from the uterine cervix by only one segment.

rat vagina [7] = assay: Histomorphometry: thickness of vaginal layers at the fifth segment; format: in vivo; conditions: OVX rats, 36 wk
Excerpt: as §2, §3, §4
Measurements of the different vaginal layers were performed on the fifth segment (FIG. 1), which is approximately halfway between the middle region and the portio vaginalis uteri (segment 7). […] Images were captured with a DC-330 3CCD color camera (Dage-MTI, Michigan City, Ind., USA) and quantified using Image-Pro Plus 3.0 software (Media Cybernetics, Silver Spring, Md., USA). Thus, using a ×5 objective (Leica Microsystems, Willowdale, Ont., Canada), 3 to 4 thickness measurements per layer were obtained from representative areas of the epithelium and muscularis, and for the three vaginal layers together. The total vaginal thickness, the thickness of the epithelium and the thickness of the muscularis were thus measured. The thickness of the lamina propria was obtained by subtracting the thickness of the epithelium and muscularis from total vaginal thickness.
as §6

C[C@]12CC[C@H](O)CC1=CC[C@@H]1[C@@H]2CC[C@]2(C)C(=O)CC[C@@H]12 [DHEA, dehydroepiandrosterone]
reversal of the OVX-induced epithelial atrophy (rat vagina [1]; at the doses used): partially reversed
layers of mucous cells in the vaginal epithelium (rat vagina [1]; segment 5): 3-5 layers
epithelium morphology (rat vagina [1]; segment 1): KS-LHM
epithelium morphology (rat vagina [1]; segment 2): LHM
epithelium morphology (rat vagina [1]; segment 3): LHM
epithelium morphology (rat vagina [1]; segment 4): LHM
epithelium morphology (rat vagina [1]; segment 5): LHM
epithelium morphology (rat vagina [1]; segment 6): LHM-SCM
epithelium morphology (rat vagina [1]; segment 7): LHM-SCM
histopathologic examination of the vagina (rat vagina [2]): reversal of vaginal mucosal atrophy
body weight compared with placebo group ([3]; DHEA 0.33 mg suppository intravaginal): slightly decreased
body weight compared with placebo group ([3]; DHEA 0.66 mg suppository intravaginal): slightly decreased
decrease of body weight compared with placebo group ([3]; DHEA 1 mg suppository intravaginal): more pronounced
vaginal weight (rat vagina [4]): 171 ± 12 mg
PR: semi-quantitative evaluation of labeled nuclei (PR; epithelium): 0
PR: semi-quantitative evaluation of labeled nuclei (PR; lamina propria): 0
PR: labeling intensity (PR; muscularis): ++
PR: semi-quantitative evaluation of labeled nuclei (PR; muscularis): 1
DHEA blood levels [5]: 70 to 100 nmol/L
vaginal epithelium thickness (rat vagina [6]; DHEA 0.33 mg/suppository intravaginal, segment 6): 2-5 cell layers
animals displaying mild inflammation (rat vagina [6]; DHEA 0.33 mg/suppository, unevenly distributed over the whole vagina): four
animals displaying mild inflammation (rat vagina [6]; DHEA 0.66 mg/suppository, three external segments): two
animals displaying mild inflammation (rat vagina [6]; DHEA 1.00 mg/suppository, four external segments): four
total vaginal thickness lower than that of the Premarin alone-treated group (rat vagina [7]; fifth segment): about 25%
muscularis thickness (rat vagina [7]; fifth segment, mean±SEM): 50±2 μm
thickness of the vaginal epithelium (rat vagina [7]; fifth segment, mean±SEM): 38±4 μm
total vaginal wall thickness (rat vagina [7]; fifth segment, mean±SEM, OVX 128±3, intact 262±39): 184±21 μm
lamina propria thickness (rat vagina [7]; fifth segment, mean±SEM, total minus epithelium and muscularis, OVX 76±2, intact 135±28): 96±20 μm
reversal of the OVX-induced decrease of the vaginal muscular layer (rat vagina [7]; 46% decrease after OVX): 41%
reversal of the OVX-induced decrease in total vaginal wall thickness (rat vagina [7]; 50% decrease after OVX): 42%
